According to patent US4985450A, “Arylthiadiazolylsulfonamides and derivatives” (priority 1989, dated 1991):

Tests used:
carbonic anhydrase B = carbonic anhydrase B (Homo sapiens, UniProt P00915); assay: Carbonic anhydrase esterase inhibition (spectrophotometric rate of hydrolysis of 1 mM p-nitrophenyl acetate); assay type: biochemical; conditions: read-out: Carbonic Anhydase Esterase Inhibition IC50
Experimental: It is generally known that carbonic anhydrase inhibitors are useful for the treatment of glaucoma. The carbonic anhydrase inhibitory activities have been evaluated by spectrophotometrically measuring the rate of hydrolysis of 1 mM p-nitrophenyl acetate catalyzed by carbonic anhydrase B according to the procedure described in J. Armstrong et al., J. Biol. Chem., Vol 241, No. 21, pp 5137-5149 (1966).

[1] = test system: intraocular pressure in alpha-chymotrypsin-induced ocular hypertensive rabbit eyes; assay: Alpha-chymotrypsin-induced ocular hypertension, maximum intraocular pressure drop; assay type: in vivo, New Zealand White rabbits
Experimental: This is done by the direct injection of the proteolytic enzyme, alpha-chymotrypsin into the posterior chamber of the rabbit eye.
Ocular hypertension is elicited in New Zealand White rabbits (2.0-2.5 kg) by the injection of alpha-chymotrypsin into the posterior chamber as described by Sears and Sears (Am. J. Ophthalmol. 77, 378-383, (1974). Briefly, the animals are pretreated with indomethacin (10 mg/kg i.p.) to prevent the otherwise immediate onset of inflammation. One hour later, the rabbits are anesthetized with a 2 ml intramuscular injection of a 50:50 mixture of xylazine (20 mg/kg) and ketamine (100 mg/kg). The eyes are individually proptosed and treated topically with 50 microliters of 0.5% proparacaine. The anterior chamber is cannulated with a 30-gauge needle attached to a reservoir set at a pressure of 25 mmHg. Then, 0.5 ml of alpha-chymotrypsin (350 units) is injected through the pupil near the limbus and into the posterior chamber using an S-curved, 30-gauge needle. During the injection, the tip of the needle is swept across the posterior chamber to distribute the enzyme. Care is taken to avoid injection of any enzyme into the corneal stroma. Both needles can then be carefully removed to prevent any significant loss of aqueous humor.
The eyes are examined biweekly for corneal lacerations and overt inflammatory responses. […] The intraocular pressures of the operated rabbits are checked approximately four weeks posttreatment. […]. Generally, about 50% of the operated eyes are suitable for study. Intraocular pressure is measured with a standard instrument and the results are expressed in terms of maximum (over measurment time) percentage drop of intraocular pressure.

carbonic anhydrase B, sequence (P00915 2-261 limits assumed): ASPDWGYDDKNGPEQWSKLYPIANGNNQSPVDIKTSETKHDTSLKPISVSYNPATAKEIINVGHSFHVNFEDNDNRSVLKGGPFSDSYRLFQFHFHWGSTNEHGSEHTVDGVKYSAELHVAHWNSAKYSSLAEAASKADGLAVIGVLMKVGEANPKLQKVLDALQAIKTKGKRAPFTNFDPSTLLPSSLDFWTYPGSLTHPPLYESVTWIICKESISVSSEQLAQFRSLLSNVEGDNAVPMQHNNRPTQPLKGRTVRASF

| SMILES | IC50 (carbonic anhydrase B) [nM] | Maximum Intraocular Pressure Drop ([1]; at 0.3%) [%] | Maximum Intraocular Pressure Drop ([1]; at 3%) [%] | Maximum Intraocular Pressure Drop ([1]; at 0.5%) [%] | Maximum Intraocular Pressure Drop ([1]; at 1.0%) [%] |
| --- | --- | --- | --- | --- | --- |
| NS(=O)(=O)c1nc(-c2ccccc2Cl)ns1 [3-(2-Chlorophenyl)-1,2,4-thiadiazole-5-sulfonamide] | 270 | 24.8 |  |  |  |
| COC(=NS(=O)(=O)c1nc(-c2ccccc2Cl)ns1)C(C)C [N-(1-Methoxy-2-methylpropylidene)-3-(2-chlorophenyl)-1,2,4-thiadiazole-5-sulfonamide] | 400 | 13 | 26 |  |  |
| CC(C)(C)NC[C@H](O)COc1nsnc1N1CCOCC1 [Timolol, reference compound] |  |  |  | 27.5 | 28.0 |
